{"source": "patent US8404746B2", "about": "“Anti-diabetes composition containing chicoric acid and/or one of the metabolites thereof” (Centre National de la Recherche Scientifique (CNRS), priority 2006, dated 2013)", "test_system": "L6 rat myocyte cell line", "test": "[3H]-deoxyglucose uptake in the L6 rat myocyte cell line with or without insulin (Example 5, FIG. 5)", "assay_type": "cell-based", "conditions": "insulin at 100 nM alone, p<0.001", "from_the_text": "The L6 line (a line from the skeletal muscle of Rattus norvegicus provided by ATCC-LCC Promochem) was used. Glucose uptake in the presence of insulin with or without SAT2 was quantified using [^3H]-deoxyglucose. The L6 cell line is cultivated in DMEM (4.5 g/l glucose) supplemented with 10% fetal calf serum (FCS). For the glucose uptake experiments, the cells are inoculated in 12-well plates at a density of 10^4 cells/well. After three days of culture, the cells are differentiated in DMEM with 2% FCS for one week. The day of the experiment, the cells are deprived for 4 hours in DMEM without FCS and containing 0.1% BSA, and then they are incubated for 1 hour in a Krebs-Ringer buffer containing 1 g/l glucose and containing […] insulin with or without SAT2 at a concentration of 50 μg/ml or 100 μg/ml. The cells are then washed in Krebs-Ringer and then incubated in the presence of 0.5 μCi [^3H]-deoxyglucose in 1 ml Krebs-Ringer per well. Glucose uptake by the L6 cells is stopped by three washings in cold PBS and the cells are then lysed in 1 ml of a 0.1 N NaOH solution. Concentration in total protein is estimated by the Bradford method and radioactivity is measured using a β counter. The final results are expressed in cpm/mg/min. […] The effects on glucose uptake are measured in the presence of [^3H]-deoxyglucose for 5 minutes. […]", "data": [{"substance": "Insulin", "values": [{"measurement": "increase in glucose capture", "value": 30.4, "unit": "%"}]}]}
